Results on 6 compounds are retold here after publication PMC11887673, “Malformin C preferentially kills glioblastoma stem‐like cells via concerted induction of proteotoxic stress and autophagic flux blockade” (Molecular Oncology, 2024).

Series [1] relates to NCH421k. In words: Assessment of synergy, combination cell viability (CellTiter-Glo). It is filed as cell-based, human. As to the method: NCH421k cells were seeded in 96‐well white plates with 8500 cells per well in 40 μL medium. To determine control curves, cells were treated with 50 μL of a 2× concentration of TMZ or CQ and 10 μL of medium and incubated for 48 h. For drug combinations, cells were treated with 10 μL of a 10× concentration of malformin C and with 50 μL of a 2× concentration of TMZ or CQ. Cell viability was determined after 48 h using the CellTiter‐Glo® assay according to the manufacturer's instructions. Synergy was determined using […] at https://synergyfinder.org/ [35].
(Cellular ATP, detected with luciferase, serves as a proxy for viable cell number.)

A further series concerns NCH441. In words: Caspase 3/7 activation (Caspase Glo). It is filed as cell-based, human. The note with it: 50 nM, within 6–8 h, n = 3. As to the method:
(§1) A total of 5000 cells were seeded into white 96‐well plates in a volume of 50 μL medium. Malformin C or Az‐mal. C was added to the medium at the indicated concentrations and incubated for the indicated times. Caspase 3/7 activity was measured using the Caspase Glo assay (Promega), according to the manufacturer's protocol.

The test system of series [2] is primary astrocytes (pAstro). In words: Caspase 3/7 activation (Caspase Glo). It is filed as cell-based, human. Conditions: 50 nM, 8 h, n = 3. As to the method:
as §1

Series [3] has as its system NCH421k. In words: Caspase 3/7 activation (Caspase Glo). The format is cell-based, human. The note with it: 50 nM, within 6–8 h, n = 3. As to the method: as §1
A further series has as its system fibroblasts (BJ). Briefly: Caspase 3/7 activation (Caspase Glo). The note with it: 50 nM, 8 h, n = 3. It is filed as cell-based, human. As to the method:
as §1

A further series concerns BDF1 mice. The note with it: cited from earlier work. As to the method:
Malformin C has been previously reported to induce fatal toxicity at doses of over 0.9 mg·kg^−1 in BDF1 mice, likely due to an acute inflammatory response. […] In a pharmacokinetic study, malfo ...

Series [4] has as its system NCH421k GSCs expressing luciferase. Briefly: In vivo tumor propagation, flank xenograft. More on the design: species or system NSG mice. As to the method: (§2) NCH421k GSCs were transduced with lentiviral particles carrying the pLenti PGK V5‐LUC Neo plasmid, which was a gift from Eric Campeau (Addgene plasmid # 21471) and transduced cells were selected using 400 μg·mL^−1 G418. Six‐week‐old female NOD.Cg‐Prkdc ^ scid Il2rg ^ tm1Wjl /SzJ (NOD‐SCIDγ) mice were obtained from the animal facility at the DKFZ. All animal experiments were performed according to animal welfare regulations and were approved by the responsible authorities (Regierungspräsidium Karlsruhe, approval number G289‐14). Animals were housed in a temperature‐controlled vivarium on a 12 h : 12 h light–dark cycle with ad libitum food and water, and all animals were monitored daily for health status and tumor‐related symptoms. […] Tumor growth was monitored using an IVIS Lumina Preclinical in vivo IMAGING SYSTEM AND LIVING IMAGE Software (version 2.50.1) (Perkin Elmer, Rodgau, Germany) and volume measurement using calipers once a week for 7 weeks, or until the tumor reached a volume of 500 mm^3.
(§3) Malformin C has been previously reported to induce fatal toxicity at doses of over 0.9 mg·kg^−1 in BDF1 mice, likely due to an acute inflammatory response. […] Seven days later, after engraftment of the cells was confirmed by the appearance of a luminescence signal, mice were treated with malformin C or DMSO (0.5 mg·kg^−1 3 × per week) for 37 days. […]

The nature of series [5]: Pharmacokinetics in plasma and blood brain barrier penetration after i.v. administration. The format is in vivo. The note with it: RjOrl:Swiss CD-1, mouse, iv, male CD-1 mice, 0.5 mg·kg^−1 i.v., LC–MS. As to the method: Pharmacokinetic (PK) parameters in plasma and blood brain barrier penetration after intravenous administration of malformin C were evaluated by Pharmacelsus GmbH. Nine adult male RjOrl : Swiss CD‐1 mice were injected i.v. with 0.5 mg·kg^−1 malformin C. K‐EDTA plasma was obtained from the retrobulbar venous plexus under isoflurane anesthesia. The plasma samples were prepared within 45 min after collection, frozen at −20 °C, and stored at this temperature until processed for LC–MS analysis. For brain collection, mice were sacrificed by cervical dislocation, immediately after the last blood sample was obtained. Brains were dissected, frozen, and stored at −20 °C. PK analysis was performed using […] 5.0 Software, Allersberg, Germany. All experimental procedures were approved by and conducted in accordance with the regulations of the local Animal Welfare authorities (Landesamt für Gesundheit und Verbraucherschutz, Abteilung Lebensmittel‐und Veterinärwesen, Saarbrücken).

Series [6] concerns NOD scid gamma (NSG) mice. Briefly: Toxicity and tolerability of repeated doses. The format is in vivo, mouse. As to the method:
as §2, §3

The next series concerns GSCs. Briefly: Cell viability, GSCs compared with normal or other cells. It is filed as cell-based, human. Conditions: 48 h, CellTiter-Glo. From the text:
GSC lines NCH421k, NCH441, NCH644, NCH711d, and NCH705 were derived from newly diagnosed GB patients who underwent surgical resection according to the research proposals approved by the Institutional Review Board at the Medical Faculty of Heidelberg (license: Neurosurgery brain tissue 005/2003; samples collected between 2003 and 2010 at Heidelberg University Hospital from patients who gave informed written consent) and performed in accordance to the Declaration of Helsinki. The cells were cultivated in serum‐free stem cell medium up to maximum passage 60 as previously described. Human astrocytes originating from fetal cerebral cortex were purchased from ScienCell, Research Laboratories, Carlsbad, CA, USA (#1800) and cultured in DMEM (Sigma‐Aldrich, Steinheim, Germany) supplemented with 10% (v/v) FCS (Merck Millipore, Darmstadt, Germany), 1 mM sodium pyruvate, 1 × GlutaMAX, and 1 × N‐2 supplement (all Life Technologies, Darmstadt, Germany). Human fetal neural stem cells (HFNSCs) were kindly provided by Dr C Watts at the Department of Clinical Neurosciences, University of Cambridge. Tissue procurement was approved by the Cambridge Local Regional Ethics committee and in accordance with section 16(e) (ii) of the United Kingdom Human Tissue Act and the Declaration of Helsinki. They were established from 12‐ to 14‐week‐old human postmortem fetal tissue as described by Iovino et al. The cells were cultured as neurospheres in neural stem cell medium (DMEM/F‐12 medium, 2% (v/v) B27 supplement, at 20 ng·mL^−1 each of bFGF and EGF, 2.5 μg·mL^−1 heparin). BJ cells (RRID: CVCL_3653) (human fibroblasts) were purchased from ATCC and cultivated in DMEM low glucose supplemented with 10% FCS. […]
Cells were seeded in 96‐well plates at a density of 8500 cells per well. […] Cell viability was assessed by the CellTiter‐Glo® (Promega) luminescent cell viability assay. […] Data were normalized to the vehicle control, and four parameter logistic curves were fitted and IC50 values calculated using […] […]

Bridge positions count the residues as written; N and C are the ends. Square brackets hold non-standard residues; d marks the D form. Peptide text beside a SMILES is read from it.

Regarding `CCN(CC)CCCC(C)Nc1ccnc2cc(Cl)ccc12` (stereo not shown) [CQ, chloroquine], in the series with NCH421k [1], the “synergy with malformin C (SynergyFinder, ZIP synergy score)” value is given as “much stronger”. For the same compound, in the series on NCH421k [1] (Homo sapiens, 48 h, CQ 23.7 μM, Malformin C 0 nM, n = 3), the inhibition (as a rule, the drop in the measured response relative to a control, in per cent) at 23.7 µM is 17%. Moreover, the inhibition at 31.6 µM in the series on NCH421k [1] (Homo sapiens, 48 h, CQ 31.6 μM, Malformin C 0 nM, n = 3) stood at 32%. Further, the inhibition at 42.2 µM with NCH421k [1] (Homo sapiens, 48 h, CQ 42.2 μM, Malformin C 0 nM, n = 3) amounted to 33%. The inhibition at 75 µM in the series with NCH421k [1] (Homo sapiens, 48 h, CQ 75 μM, Malformin C 0 nM, n = 3) worked out at 99%.

Take `Cn1nnc2c(C(N)=O)ncn2c1=O` [TMZ, temozolomide]: the “synergy with malformin C (SynergyFinder, ZIP synergy score)” value in the series on NCH421k [1] was “synergistic effect”. For the same compound, the inhibition at 80 µM in the series with NCH421k [1] (Homo sapiens, 48 h, TMZ 80 μM, Malformin C 0 nM, n = 3) was found to be 2%. The inhibition at 160 µM with NCH421k [1] (Homo sapiens, 48 h, TMZ 160 μM, Malformin C 0 nM, n = 3) was 6%. Moreover, the inhibition at 310 µM with NCH421k [1] (Homo sapiens, 48 h, TMZ 310 μM, Malformin C 0 nM, n = 3) turned out to be 6%. The inhibition at 500 µM in the series on NCH421k [1] (Homo sapiens, 48 h, TMZ 500 μM, Malformin C 0 nM, n = 3) came out at 22%. For the same compound, in the series with NCH421k [1] (Homo sapiens, 48 h, TMZ 1000 μM, Malformin C 0 nM, n = 3), the inhibition at 1000 µM is 47%.

Regarding `CC(C)C[C@@H]1NC(=O)[C@@H](CC(C)C)NC(=O)[C@H](C(C)C)NC(=O)[C@H]2CSSC[C@@H](NC1=O)C(=O)N2` [malformin C] (cyclo(L[dC][dC]V[dL]); disulfide 2-3), the “caspase 3/7 activation” value was “significantly activated caspases” in the series with NCH441, “not” in series [2], “significantly activated caspases” in the series on NCH421k [3] and “not” in the series with fibroblasts (BJ). The “doses inducing fatal toxicity” value in the series with BDF1 mice is “over 0.9 mg·kg^−1”. Further, in [4] (0.5 mg·kg^−1 i.p. 3 × per week, NSG mice, during the study), the “weights of the mice” value is “did not affect the weights of the mice”. The “tumor growth (luminescence, caliper volume)” value in series [4] (flank of NSG mice, 0.5 mg·kg^−1 i.p. 3 × per week for 37 days, monitored 49 days, n = 9 vs 8 DMSO) was “dramatically suppressed tumor growth”. Moreover, the level at time molar at 1 h in series [5] (brain, by 1 h, read-out: equivalent molar concentration in the brain) was about 1.9 nM. Besides, the half-life (as a rule, the time needed for the level to fall by half in the phase considered) in series [5] (K-EDTA plasma, n=3 mice per time point) is 5.8 h. Also, the tolerability result in series [6] (0.5 mg·kg^−1 i.p. three times per week, NSG mice) was “tolerated well”. In series [6] (immune-deficient NSG mice), the “repeated doses causing intolerable toxicity” value is recorded as “over 0.9 mg·kg^−1”.

`CN[C@@H]1C[C@H]2O[C@@](C)([C@@H]1OC)n1c3ccccc3c3c4c(c5c6ccccc6n2c5c31)C(=O)NC4` [staurosporine]: the “loss of viability in GSCs compared with normal cells” value (“loss … compared with normal cells” below) with GSCs is given as “similarly”.

On to malformin A1, for which the “loss … compared with normal cells” value with GSCs was “more potent against GSCs than normal cells”.

In the case of tunicamycin, in the series on GSCs, the “loss … compared with normal cells” value is reported as “not more sensitive than astrocytes”.
